# Legend:
# [1] = tested on: Scenedesmus acutus; assay: Phytotoxicity against Scenedesmus acutus assessed as ethane production level per ml of packed cell volume at 10 uM after 20 hr by gas chromatography; format: functional
# [2] = target: T1, Protoporphyrinogen IX oxidase (Zea mays) (UniProt Q9FYV8); assay: Inhibition of protoporphyrinogen IX oxidase in Zea mays cv. DK212MF (maize) seedlings assessed as protoporphyrin IX formation at 10 uM after 5 min by spectrophotometry
# T1 sequence (whole entry): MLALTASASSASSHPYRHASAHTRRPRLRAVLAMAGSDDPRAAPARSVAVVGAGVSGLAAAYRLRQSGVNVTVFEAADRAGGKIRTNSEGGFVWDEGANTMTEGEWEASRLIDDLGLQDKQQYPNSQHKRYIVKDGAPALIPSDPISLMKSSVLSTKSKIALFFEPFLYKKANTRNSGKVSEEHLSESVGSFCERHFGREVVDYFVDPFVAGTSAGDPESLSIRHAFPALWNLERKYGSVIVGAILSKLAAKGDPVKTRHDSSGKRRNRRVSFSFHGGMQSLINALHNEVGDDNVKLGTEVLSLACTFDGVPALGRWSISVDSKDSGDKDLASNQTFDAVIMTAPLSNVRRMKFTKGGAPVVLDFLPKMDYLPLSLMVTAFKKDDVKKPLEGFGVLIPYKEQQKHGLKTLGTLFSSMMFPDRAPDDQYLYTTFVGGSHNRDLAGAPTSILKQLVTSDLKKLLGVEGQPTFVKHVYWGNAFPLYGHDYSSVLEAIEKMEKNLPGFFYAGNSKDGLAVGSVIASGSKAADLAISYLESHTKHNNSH
inhibition [2],Structure (SMILES),Activity [1]
,O=C1C2=C(CCCC2)C(=O)N1c1ccc(Cl)cc1 [CHLOROPHTHALIUM],12 nmol/mL
,CC(C)OC(=O)c1cc(-n2c(=O)c3c([s+]2[O-])CCCC3)ccc1Cl (stereo not drawn),3 nmol/mL
,O=c1c2c(sn1-c1cc(OC3CCCC3)c(Cl)cc1F)CCCC2,0 nmol/mL
,O=C1C2=C(CCCC2)S(=O)(=O)N1c1ccc(Cl)cc1,12 nmol/mL
11.2%,O=c1c2c(sn1-c1ccc(Cl)cc1)CCCC2,7 nmol/mL
,CC(C)OC(=O)c1cc(N2C(=O)C3=C(CCCC3)C2=O)ccc1Cl,12 nmol/mL
,O=C1C2=C(CCCC2)S(=O)(=O)N1c1cc(OC2CCCC2)c(Cl)cc1F,3 nmol/mL
,CC(C)OC(=O)c1cc(-n2sc3c(c2=O)CCCC3)ccc1Cl,3 nmol/mL
,O=C1C2=C(CCCC2)C(=O)N1c1cc(OC2CCCC2)c(Cl)cc1F,12 nmol/mL
,CC(C)OC(=O)c1cc(N2C(=O)C3=C(CCCC3)S2(=O)=O)ccc1Cl,12 nmol/mL
,O=c1c2c([s+]([O-])n1-c1ccc(Cl)cc1)CCCC2 (stereo not drawn),3 nmol/mL
,O=c1c2c([s+]([O-])n1-c1cc(OC3CCCC3)c(Cl)cc1F)CCCC2 (stereo not drawn),0 nmol/mL
